# Target: T1, Axl (Homo sapiens, UniProt P30530)
# T1 construct: endogenous in cells; host or cells: HeLa cells
# T1 sequence (P30530 26-894): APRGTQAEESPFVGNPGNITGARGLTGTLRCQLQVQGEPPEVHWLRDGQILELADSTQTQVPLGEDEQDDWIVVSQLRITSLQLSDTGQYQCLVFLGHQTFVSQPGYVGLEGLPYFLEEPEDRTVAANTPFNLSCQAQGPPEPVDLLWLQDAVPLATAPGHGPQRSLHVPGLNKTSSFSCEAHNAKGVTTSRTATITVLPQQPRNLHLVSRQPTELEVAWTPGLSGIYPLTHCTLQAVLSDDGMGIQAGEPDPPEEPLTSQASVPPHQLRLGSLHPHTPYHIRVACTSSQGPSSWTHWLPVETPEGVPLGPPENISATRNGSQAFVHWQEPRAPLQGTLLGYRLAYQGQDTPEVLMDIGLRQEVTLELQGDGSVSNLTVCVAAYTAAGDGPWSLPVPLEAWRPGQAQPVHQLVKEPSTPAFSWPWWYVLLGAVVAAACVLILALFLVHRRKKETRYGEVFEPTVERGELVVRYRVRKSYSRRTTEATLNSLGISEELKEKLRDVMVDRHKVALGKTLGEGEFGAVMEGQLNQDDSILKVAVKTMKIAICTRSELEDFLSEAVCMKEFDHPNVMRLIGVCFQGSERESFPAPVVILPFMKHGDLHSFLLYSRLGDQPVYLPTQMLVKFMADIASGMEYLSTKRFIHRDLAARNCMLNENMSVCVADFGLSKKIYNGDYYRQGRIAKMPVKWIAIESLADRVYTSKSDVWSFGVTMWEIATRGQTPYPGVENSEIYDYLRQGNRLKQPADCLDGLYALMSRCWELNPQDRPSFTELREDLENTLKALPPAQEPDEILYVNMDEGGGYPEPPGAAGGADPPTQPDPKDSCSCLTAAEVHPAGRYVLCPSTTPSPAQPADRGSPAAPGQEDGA
# Assay: Phospho-Akt In-Cell Western Assay (inhibition of Axl activity after Axl-antibody cross-linking)
# Type: cell-based
# Conditions: Hela cells, phospho-Akt chemiluminescence normalized to relative cell number; compounds of formula (Ia), Table 1; read-out: IC50
# Method in brief: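 HeLa cells on poly-L-lysine, starved 24 h in 0.5% FCS DMEM with Axl/Fc 500 ng/mL, pre-treated with compound 1 h at 37 °C, then stimulated 5 min by anti-Axl/anti-mouse antibody cross-linking. Fixed cells probed for phospho-Akt with HRP secondary and chemiluminescent detection.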
row,IC50 [nM],Compound
1,< 1000,"CC(C)N1CCN(Cc2ccc(Nc3nc(N)n(-c4cc5c(nn4)-c4ccccc4CCC5)n3)cc2)CC1 [Compound 108, 1-(6,7-dihydro-5H-benzo[6,7]cyclohepta[1,2-c]pyridazin-3-yl)-N^3-(4-((4-isopropylpiperazinyl)methyl)-phenyl)-1H-1,2,4-triazole-3,5-diamine]"
2,< 1000,"Nc1nc(Nc2ccc(N3CCC(N4CCCC4)CC3)c(F)c2)nn1-c1cc2c(nn1)CCCc1ccccc1-2 [Compound 71, 1-(6,7-dihydro-5H-benzo[6,7]cyclohepta[4,5-c]pyridazin-2-yl)-N^3-(3-fluoro-4-(4-(pyrrolidinyl)piperidinyl)-phenyl)-1H-1,2,4-triazole-3,5-diamine]"
3,1000 to 10000,"CN(C)Cc1nc2cc(Nc3nc(N)n(-c4cc5c(nn4)-c4ccccc4CCC5)n3)ccc2[nH]1 [Compound 13, 1-(6,7-dihydro-5H-benzo[6,7]cyclohepta[1,2-c]pyridazin-3-yl)-N^3-(2-((dimethylamino)methyl)-1H-benzo[d]imidazol-5-yl)-1H-1,2,4-triazole-3,5-diamine]"
4,1000 to 10000,"CCCCN(Cc1ccc(Nc2nc(N)n(-c3cc4c(nn3)-c3ccccc3CCC4)n2)cc1)C(C)=O [Compound 90, 1-(6,7-dihydro-5H-benzo[6,7]cyclohepta[1,2-c]pyridazin-3-yl)-N^3-(4-((N-butyl-N-acetoamino)methyl)phenyl)-1H-1,2,4-triazole-3,5-diamine]"
5,1000 to 10000,"Nc1nc(Nc2ccc(OCCN3CCCC3)cc2)nn1C1=Nc2ccccc2Sc2ccccc21 [Compound 49, 1-((Z)-dibenzo[b,f][1,4]thiazepin-11-yl)-N^3-(4-(2-(pyrrolidin-1-yl)ethoxy)phenyl)-1H-1,2,4-triazole-3,5-diamine]"
6,< 1000,"Nc1nc(Nc2ccc(N3CCC(N4CCCC4)CC3)cc2)nn1-c1cc2c(nn1)-c1ccccc1SCC2 [Compound 120, 1-(6,7-dihydro-5H-benzo[2,3]thiepino[4,5-c]pyridazin-3-yl)-N^3-(4-(4-pyrrolidin-1-ylpiperidinyl)phenyl)-1H-1,2,4-triazole-3,5-diamine]"
7,< 1000,"CC(C)N1CCN(C2CCN(c3ccc(Nc4nc(N)n(-c5cc6c(nn5)-c5ccccc5CCC6)n4)cc3F)CC2)CC1 [Compound 80, 1-(6,7-dihydro-5H-benzo[6,7]cyclohepta[1,2-c]pyridazin-3-yl)-N^3-(3-fluoro-4-(4-(4-isopropylpiperazin-1-yl)piperidin-1-yl)phenyl)-1H-1,2,4-triazole-3,5-diamine]"
8,< 1000,"CN1CCN(C2CCN(c3ccc(Nc4nc(N)n(-c5cc6c(nn5)-c5ccccc5CCC6)n4)cc3F)CC2)CC1 [Compound 58, 1-(6,7-dihydro-5H-benzo[6,7]cyclohepta[1,2-c]pyridazin-3-yl)-N^3-(3-fluoro-4-(4-(4-methylpiperazin-1-yl)piperidin-1-yl)phenyl)-1H-1,2,4-triazole-3,5-diamine]"
9,> 20000,"COc1ccc2c(c1)CCCc1cc(-n3nc(Nc4ccc(N5CCN(C6CCCCC6)CC5)c(F)c4)nc3N)nnc1-2 [Compound 57, 1-(6,7-dihydro-5H-9-methoxybenzo[6,7]cyclo-hepta[1,2-c]pyridazin-3-yl)-N^3-(3-fluoro-4-(4-(cyclohexyl)piperazin-1-yl)phenyl)-1H-1,2,4-triazole-3,5-diamine]"
10,< 1000,"Nc1nc(Nc2ccc(N3CCN(C4CC5CCC4C5)CC3)cc2)nn1-c1ncnc2c1CCCc1ccccc1-2 (centres unmarked) [Compound 38, 1-(6,7-dihydro-5H-benzo[6,7]cyclohepta[1,2-d]pyrimidin-4-yl)-N3-(4-(4-(bicyclo[2.2.1]heptan-2-yl)piperazin-1-yl)phenyl)-1H-1,2,4-triazole-3,5-diamine]"
11,< 1000,"CC1CN(C2CCCC2)CCN1c1ccc(Nc2nc(N)n(-c3cc4c(nn3)-c3ccccc3CCC4)n2)cc1 (centres unmarked) [Compound 16, 1-(6,7-dihydro-5H-benzo[6,7]cyclohepta[1,2-c]pyridazin-3-yl)-N^3-(4-(4-cyclopentyl-2-methylpiperazin-1-yl)phenyl)-1H-1,2,4-triazole-3,5-diamine]"
12,< 1000,"Cc1cc(Nc2nc(N)n(-c3cc4c(nn3)-c3ccccc3CCC4)n2)ccc1N1CCC(N2CCCC2)CC1 [Compound 106, 1-(6,7-dihydro-5H-benzo[6,7]cyclohepta[1,2-c]pyridazin-3-yl)-N^3-(3-methyl-4-(4-pyrrolidin-1-ylpiperidinyl)phenyl)-1H-1,2,4-triazole-3,5-diamine]"
13,< 1000,"CN1CCN(C2CCN(c3ccc(Nc4nc(N)n(-c5cc6c(nn5)-c5ccccc5CCC6)n4)cn3)CC2)CC1 [Compound 30, 1-(6,7-dihydro-5H-benzo[6,7]cyclohepta[1,2-c]pyridazin-3-yl)-N^3-(6-(4-(4-methylpiperazin-1-yl)piperidin-1-yl)pyridine-3-yl)-1H-1,2,4-triazole-3,5-diamine]"

row,Compound,IC50 [nM]
1,"Nc1nc(Nc2ccc(N3CC(N4CCCC4)C3)c(F)c2)nn1-c1cc2c(nn1)-c1ccccc1CCC2 [Compound 113, 1-(6,7-dihydro-5H-benzo[6,7]cyclohepta[1,2-c]pyridazin-3-yl)-N^3-(3-fluoro-4-(3-pyrrolidin-1-ylazetidinyl)phenyl)-1H-1,2,4-triazole-3,5-diamine]",< 1000

# Same assay, conditions: Hela cells, phospho-Akt chemiluminescence normalized to relative cell number; compounds of formula (Ib), Table 2; read-out: IC50
row,IC50 [nM],Compound
1,1000 to 10000,"CN1CCN(c2ccc(Nc3nc(N)nn3-c3cc4c(nn3)-c3ccccc3CCC4)cc2F)CC1 [Compound 242, 1-(6,7-dihydro-5H-benzo[6,7]cyclohepta[1,2-c]pyridazin-3-yl)-N^5-(3-fluoro-4-(4-methylpiperazin-1-yl)phenyl)-1H-1,2,4-triazole-3,5-diamine]"
2,> 20000,"Cc1cc(Nc2nc(N)nn2-c2cc3c(nn2)-c2ccccc2CCC3)ccc1N1CCC(N2CCN(C)CC2)CC1 [Compound 171, 1-(6,7-dihydro-5H-benzo[6,7]cyclohepta[1,2-c]pyridazin-3-yl)-N^5-(3-methyl-4-(4-(N-methylpiperazin-4-yl)piperidin-1-yl)phenyl)-1H-1,2,4-triazole-3,5-diamine]"

# Same assay, conditions: inhibition of Axl activity; Table 1, compounds of formula (Ia); read-out: IC50
row,IC50 [nM],Compound
1,< 1000,"Nc1nc(Nc2cnc3c(c2)CN(C2CCCC2)CC3)nn1-c1cc2c(nn1)-c1ccccc1CCC2 [Compound 190, 1-(6,7-dihydro-5H-benzo[6,7]cyclohepta[1,2-c]pyridazin-3-yl)-N^3-(6-cyclopentyl-5,6,7,8-tetrahydro-1,6-naphthyridine-3-yl)-1H-1,2,4-triazole-3,5-diamine]"
2,< 1000,"Nc1nc(Nc2cnc3c(c2)CC(N2CCCC2)CC3)nn1-c1cc2c(nn1)-c1ccccc1CCC2 (centres unmarked) [Compound 189, 1-(6,7-dihydro-5H-benzo[6,7]cyclohepta[1,2-c]pyridazin-3-yl)-N^3-(6-(pyrrolidin-1-yl)-5,6,7,8-tetrahydroquinolin-3-yl)-1H-1,2,4-triazole-3,5-diamine]"
3,< 1000,"Nc1nc(Nc2ccc(C=CCN3CCCC3)cc2)nn1-c1cc2c(nn1)-c1ccccc1CCC2 [Compound 199, 1-(6,7-dihydro-5H-benzo[6,7]cyclohepta[1,2-c]pyridazin-3-yl)-N^3-(4-(pyrrolidin-1-ylprop-1-enyl)phenyl)-1H-1,2,4-triazole-3,5-diamine]"
4,1000 to 10000,"CN1CCN(C2CCN(c3ccc(Nc4nc(N)n(-c5cc6c(nn5)-c5ccc(Cl)cc5CCC6)n4)cc3F)CC2)CC1 [Compound 144, 1-(6,7-dihydro-9-chloro-5H-benzo[6,7]cyclohepta[1,2-c]pyridazin-3-yl)-N^3-(3-fluoro-4-(4-(N-methylpiperazin-1-yl)piperidin-1-yl)phenyl)-1H-1,2,4-triazole-3,5-diamine]"
5,< 1000,"CN1CCN(c2ccc(Nc3nc(N)n(-c4cc5c(nn4)-c4ccccc4CCC5)n3)cc2F)CC1 [Compound 209, 1-(6,7-dihydro-5H-benzo[6,7]cyclohepta[1,2-c]pyridazin-3-yl)-N^3-(3-fluoro-4-(4-methylpiperazin-1-yl)phenyl)-1H-1,2,4-triazole-3,5-diamine]"
6,< 1000,"CN(C)C1CCN(C/C=C/c2ccc(Nc3nc(N)n(-c4cc5c(nn4)-c4ccccc4CCC5)n3)cn2)CC1 [Compound 146, 1-(6,7-dihydro-5H-benzo[6,7]cyclohepta[1,2-c]pyridazin-3-yl)-N^3-(6-(3-(4-dimethylaminopiperidin-1-yl)-(E)-propenyl)pyridin-3-yl)-1H-1,2,4-triazole-3,5-diamine]"

row,Compound,IC50 [nM]
1,"Nc1nc(Nc2ccc(CCCN3CCCCC3)nc2)nn1-c1cc2c(nn1)-c1ccccc1CCC2 [Compound 142, 1-(6,7-dihydro-5H-benzo[6,7]cyclohepta[1,2-c]pyridazin-3-yl)-N^3-(6-(3-piperidin-1-yl)-propanylpyridin-3-yl)-1H-1,2,4-triazole-3,5-diamine]",< 1000

# From US7709482B2, “Polycyclic heteroaryl substituted triazoles useful as Axl inhibitors” (Rigel Pharmaceuticals, Inc., priority 2006, dated 2010)
